# Measurements: US20230167105A1, “BCL-2 PROTEIN INHIBITORS” (Recurium IP Holdings, LLC, priority 2020, published 2023)
# Tested on: MOLT-4 cells
# Assay: MOLT-4 Cell Proliferation Assay (CellTiter-Glo)
# Type: cell-based
# Conditions: Homo sapiens, 72 h, read-out: MOLT-4 CTG IC50
# Experimental: Cell proliferation was measured using the CellTiter-Glo® Luminescent Cell Viability Assay. The assay involved the addition of a single reagent (CellTiter-Glo® Reagent) directly to cells cultured in serum-supplemented medium. MOLT-4 cells (ATCC, CRL-1582) were cultured according to ATCC recommendations and were seeded at 50,000 cells per well.
# Each compound evaluated was prepared as a DMSO stock solution (10 mM). Compounds were tested in duplicate on each plate, with a 10-point serial dilution curve (1:3 dilution). The highest compound concentration was 10 μM (final), with a 0.1% final DMSO concentration. Plates were then incubated at 37° C., 5% CO2 for 72 h, cell plates were equilibrated at rt for approximately 30 mins. An equi-volume amount of CellTiter-Glo® Reagent (100 μL) was added to each well. Plates were mixed for 2 mins on an orbital shaker to induce cell lysis and then incubated at rt for 10 mins to stabilize the luminescent signal. Luminescence was recorded using a Envision plate reader according to CellTiter-Glo protocol. IC50 of each compound was calculated using GraphPad Prism by nonlinear regression analysis.
row,IC50 [nM],SMILES
1,50 to 150,"CCC12CC(C3=C(CN4CCN(c5ccc(C(=O)NS(=O)(=O)c6ccc(N[C@H](CCN7CCN(C(=O)CCCCCC(=O)N[C@H](C(=O)N8C[C@H](O)C[C@H]8C(=O)N[C@@H](C)c8ccc(-c9scnc9C)cc8)C(C)(C)C)CC7)CSc7ccccc7)c(S(=O)(=O)C(F)(F)F)c6)cc5)CC4)CCC(C)(C)C3)(C1)C2 [Example 14, (2S,4R)-1-((S)-2-(7-(4-((R)-3-((4-(N-(4-(4-((2-(3-ethylbicyclo[1.1.1]pentan-1-yl)-4,4-dimethylcyclohex-1-en-1-yl)methyl)piperazin-1-yl)benzoyl)sulfamoyl)-2-((trifluoromethyl)sulfonyl)phenyl)amino)-4-(phenylthio)butyl)piperazin-1-yl)-7-oxoheptanamido)-3,3-dimethylbutanoyl)-4-hydroxy-N—((S)-1-(4-(4-methylthiazol-5-yl)phenyl)ethyl)pyrrolidine-2-carboxamide]"
2,50 to 150,"CC1(C)CCC(CN2CCN(c3ccc(C(=O)NS(=O)(=O)c4ccc(N[C@H](CCN5CCN(CCCCCNc6cccc7c6CN(C6CCC(=O)NC6=O)C7=O)CC5)CSc5ccccc5)c(S(=O)(=O)C(F)(F)F)c4)cc3)CC2)=C(C23CC(C(F)F)(C2)C3)C1 (stereo partly drawn) [Example 15, 4-[4-[[2-[3-(difluoromethyl)-1-bicyclo[1.1.1]pentanyl]-4,4-dimethyl-cyclohexen-1-yl]methyl]piperazin-1-yl]-N-[4-[[(1R)-3-[4-[5-[[2-(2,6-dioxo-3-piperidyl)-1-oxo-isoindolin-4-yl]amino]pentyl]piperazin-1-yl]-1-(phenylsulfanylmethyl)propyl]amino]-3-(trifluoromethylsulfonyl)phenyl]sulfonyl-benzamide]"
3,≤ 50,"CC1(C)CCC(CN2CCN(c3ccc(C(=O)NS(=O)(=O)c4ccc(N[C@H](CCN5CCN(CCCCc6ccc7c(c6)C(=O)N(C6CCC(=O)NC6=O)C7=O)CC5)CSc5ccccc5)c(S(=O)(=O)C(F)(F)F)c4)cc3)CC2)=C(C23CC(C(F)F)(C2)C3)C1 (stereo partly drawn) [Example 17, 4-(4-((2-(3-(difluoromethyl)bicyclo[1.1.1]pentan-1-yl)-4,4-dimethylcyclohex-1-en-1-yl)methyl)piperazin-1-yl)-N-((4-(((2R)-4-(4-(4-(2-(2,6-dioxopiperidin-3-yl)-1,3-dioxoisoindolin-5-yl)butyl)piperazin-1-yl)-1-(phenylthio)butan-2-yl)amino)-3-((trifluoromethyl)sulfonyl)phenyl)sulfonyl)benzamide]"
4,≤ 50,"CC1(C)CCC(CN2CCN(c3ccc(C(=O)NS(=O)(=O)c4ccc(N[C@H](CCN5CCN(CCCCc6ccc7c(c6)CN(C6CCC(=O)NC6=O)C7=O)CC5)CSc5ccccc5)c(S(=O)(=O)C(F)(F)F)c4)cc3)CC2)=C(C23CC(C(F)F)(C2)C3)C1 (stereo partly drawn) [Example 18, 4-(4-((2-(3-(difluoromethyl)bicyclo [1.1.1]pentan-1-yl)-4,4-dimethylcyclohex-1-en-1-yl)methyl)piperazin-1-yl)-N-((4-(((2R)-4-(4-(4-(2-(2,6-dioxopiperidin-3-yl)-1-oxoisoindolin-5-yl)butyl)piperazin-1-yl)-1-(phenylthio)butan-2-yl)amino)-3-((trifluoromethyl)sulfonyl)phenyl)sulfonyl)benzamide]"
5,50 to 150,"CN(CCCNc1cccc2c1C(=O)N(C1CCC(=O)NC1=O)C2=O)CC[C@H](CSc1ccccc1)Nc1ccc(S(=O)(=O)NC(=O)c2ccc(N3CCN(CC4=C(C56CC(C(F)F)(C5)C6)CC(C)(C)CC4)CC3)cc2)cc1S(=O)(=O)C(F)(F)F (stereo partly drawn) [Example 19, 4-(4-((2-(3-(difluoromethyl)bicyclo[1.1.1]pentan-1-yl)-4,4-dimethylcyclohex-1-en-1-yl)methyl)piperazin-1-yl)-N-((4-(((2R)-4-((3-((2-(2,6-dioxopiperidin-3-yl)-1,3-dioxoisoindolin-4-yl)amino)propyl)(methyl)amino)-1-(phenylthio)butan-2-yl)amino)-3-((trifluoromethyl)sulfonyl)phenyl)sulfonyl)benzamide]"
6,≤ 50,"CN(CCCCCNc1cccc2c1C(=O)N(C1CCC(=O)NC1=O)C2=O)CC[C@H](CSc1ccccc1)Nc1ccc(S(=O)(=O)NC(=O)c2ccc(N3CCN(CC4=C(C56CC(C(F)F)(C5)C6)CC(C)(C)CC4)CC3)cc2)cc1S(=O)(=O)C(F)(F)F (stereo partly drawn) [Example 20, 4-(4-((2-(3-(difluoromethyl)bicycle[1.1.1]pentan-1-yl)-4,4-dimethylcyclohex-1-en-1-yl)methyl)piperazin-1-yl)-N-((4-(((2R)-4-((5-((2-(2,6-dioxopiperidin-3-yl)-1,3-dioxoisoindolin-4-yl)amino)pentyl)(methyl)amino)-1-(phenylthio)butan-2-yl)amino)-3-((trifluoromethyl)sulfonyl)phenyl)sulfonyl)benzamide]"
7,50 to 150,"CN(CCCCCCNc1cccc2c1C(=O)N(C1CCC(=O)NC1=O)C2=O)CC[C@H](CSc1ccccc1)Nc1ccc(S(=O)(=O)NC(=O)c2ccc(N3CCN(CC4=C(C56CC(C(F)F)(C5)C6)CC(C)(C)CC4)CC3)cc2)cc1S(=O)(=O)C(F)(F)F (stereo partly drawn) [Example 21, 4-(4-((2-(3-(difluoromethyl)bicyclo [1.1.1]pentan-1-yl)-4,4-dimethylcyclohex-1-en-1-yl)methyl)piperazin-1-yl)-N-((4-(((2R)-4-((6-((2-(2,6-dioxopiperidin-3-yl)-1,3-dioxoisoindolin-4-yl)amino)hexyl)(methyl)amino)-1-(phenylthio)butan-2-yl)amino)-3-((trifluoromethyl)sulfonyl)phenyl)sulfonyl)benzamide]"
8,≥ 150,"CC1(C)CCC(CN2CCN(c3ccc(C(=O)NS(=O)(=O)c4ccc(N[C@H](CCN5CCN(CCCCCc6cccc7c6C(=O)N(C6CCC(=O)NC6=O)C7=O)CC5)CSc5ccccc5)c(S(=O)(=O)C(F)(F)F)c4)cc3)CC2)=C(C23CC(C(F)F)(C2)C3)C1 (stereo partly drawn) [Example 22, 4-(4-((2-(3-(difluoromethyl)bicyclo[1.1.1]pentan-1-yl)-4,4-dimethylcyclohex-1-en-1-yl)methyl)piperazin-1-yl)-N-((4-(((2R)-4-(4-(5-(2-(2,6-dioxopiperidin-3-yl)-1,3-dioxoisoindolin-4-yl)pentyl)piperazin-1-yl)-1-(phenylthio)butan-2-yl)amino)-3-((trifluoromethyl)sulfonyl)phenyl)sulfonyl)benzamide]"
9,50 to 150,"Cc1ncsc1-c1ccc([C@H](C)NC(=O)[C@@H]2C[C@@H](O)CN2C(=O)[C@@H](NC(=O)CCCCCCC(=O)N2CCN(CC[C@H](CSc3ccccc3)Nc3ccc(S(=O)(=O)NC(=O)c4ccc(N5CCN(CC6=C(C78CC(C(F)F)(C7)C8)CC(C)(C)CC6)CC5)cc4)cc3S(=O)(=O)C(F)(F)F)CC2)C(C)(C)C)cc1 [Example 23, (2S,4R)-1-((S)-2-(8-(4-((R)-3-((4-(N-(4-(4-((2-(3-(difluoromethyl)bicyclo[1.1.1]pentan-1-yl)-4,4-dimethylcyclohex-1-en-1-yl)methyl)piperazin-1-yl)benzoyl)sulfamoyl) ((trifluoromethyl)sulfonyl)phenyl)amino)-4-(phenylthio)butyl)piperazin-1-yl)-8-oxooctanamido)-3,3-dimethylbutanoyl)-4-hydroxy-N—((S)-1-(4-(4-methylthiazol-5-yl)phenyl)ethyl)pyrrolidine-2-carboxamide]"
